Consider 16 compounds from patent US12624044B2, “SMARCA degraders and uses thereof” (Kymera Therapeutics, Inc., priority 2019, dated 2026).

Holding throughout (assay type): cell-based
Test [1] has as its target T1, SMARCA2 (Homo sapiens, UniProt P51531). In words: SMARCA2 Western blot MV4-11 degradation. To be noted: for SMARCA2 WB MV411 degradation 24 h: Average Dmax % / DC50: MV4-11 cells; for DC50 / Dmax: 24 h; for DC50: read-out: SMARCA2 WB MV411 degradation 24 h: Average external-Abs DC50; for Dmax: MV4-11, MV4-11 cells, read-out: SMARCA2 WB MV411 degradation 24 h: Average Dmax %. An outline of the steps:
(§1)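 MV4-11 cells treated with compound for 24 h, lysed in RIPA with protease/phosphatase inhibitors, and SMARCA2 and SMARCA4 (BRG1) levels assessed by Western blot with β-actin loading control and LI-COR fluorescent read-out. Maximal degradation (Dmax %) after 24 h binned into letter codes.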

Test [2] concerns the target T1, SMARCA2. As to the kind of experiment: MSD SMARCA2 degradation in A549 cell line. To be noted: for SMARCA2 MSD A549 degradation 24 h: Average Dmax % / DC50: A549 cells; for DC50 / Dmax: 24 h; for DC50: read-out: SMARCA2 MSD A549 degradation 24 h: Average external-Abs DC50; for Dmax: A549, A549 cells. An outline of the steps:
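SMARCA2 remaining was measured by MSD electrochemiluminescence on RIPA lysates (anti-SMARCA2 plus SULFO-TAG anti-rabbit). Prior exposure: 24 h of A549 cells to a 10-point, 3-fold dilution series topping at 1000 nM final; Dmax % given as graded codes.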

For test [3], the target named is T2, SMARCA4 (Homo sapiens, UniProt P51532).
T2 construct: SMARCA2 and SMARCA4 protein degradation in MV4-11 cells; endogenous in cells; host or cells: MV4-11
In words: SMARCA4 Western blot MV4-11 degradation. The note with it: for SMARCA4 WB MV411 degradation 24 h: Average Dmax % / DC50: MV4-11 cells; for DC50 / Dmax: 24 h; for DC50: read-out: SMARCA4 WB MV411 degradation 24 h: Average external-Abs DC50; for Dmax: MV4-11, MV4-11 cells, read-out: SMARCA4 WB MV411 degradation 24 h: Average Dmax %. An outline of the steps: as §1

Test [4] addresses T1, SMARCA2. In words: MSD SMARCA2 degradation in NCI-H1299 cell line (24 h). The arrangement: HC: NCI-H1299 cells treated with DMSO; host or cells: NCI-H1299. The note with it: NCI-H1299 cells. An outline of the steps:
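SMARCA2 measured by MSD electrochemiluminescence (primary 0.3 ug/ml, secondary 1 ug/ml) on lysates from NCI-H1299 cells exposed to compounds for 24 h across nine 3-fold dilutions. Signal scaled from A2780 cells (no SMARCA2) to DMSO-treated H1299 controls, and maximal degradation after 24 h reported in letter categories.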

Molecules are shown by their SMILES.

T1 sequence (P51531 whole entry): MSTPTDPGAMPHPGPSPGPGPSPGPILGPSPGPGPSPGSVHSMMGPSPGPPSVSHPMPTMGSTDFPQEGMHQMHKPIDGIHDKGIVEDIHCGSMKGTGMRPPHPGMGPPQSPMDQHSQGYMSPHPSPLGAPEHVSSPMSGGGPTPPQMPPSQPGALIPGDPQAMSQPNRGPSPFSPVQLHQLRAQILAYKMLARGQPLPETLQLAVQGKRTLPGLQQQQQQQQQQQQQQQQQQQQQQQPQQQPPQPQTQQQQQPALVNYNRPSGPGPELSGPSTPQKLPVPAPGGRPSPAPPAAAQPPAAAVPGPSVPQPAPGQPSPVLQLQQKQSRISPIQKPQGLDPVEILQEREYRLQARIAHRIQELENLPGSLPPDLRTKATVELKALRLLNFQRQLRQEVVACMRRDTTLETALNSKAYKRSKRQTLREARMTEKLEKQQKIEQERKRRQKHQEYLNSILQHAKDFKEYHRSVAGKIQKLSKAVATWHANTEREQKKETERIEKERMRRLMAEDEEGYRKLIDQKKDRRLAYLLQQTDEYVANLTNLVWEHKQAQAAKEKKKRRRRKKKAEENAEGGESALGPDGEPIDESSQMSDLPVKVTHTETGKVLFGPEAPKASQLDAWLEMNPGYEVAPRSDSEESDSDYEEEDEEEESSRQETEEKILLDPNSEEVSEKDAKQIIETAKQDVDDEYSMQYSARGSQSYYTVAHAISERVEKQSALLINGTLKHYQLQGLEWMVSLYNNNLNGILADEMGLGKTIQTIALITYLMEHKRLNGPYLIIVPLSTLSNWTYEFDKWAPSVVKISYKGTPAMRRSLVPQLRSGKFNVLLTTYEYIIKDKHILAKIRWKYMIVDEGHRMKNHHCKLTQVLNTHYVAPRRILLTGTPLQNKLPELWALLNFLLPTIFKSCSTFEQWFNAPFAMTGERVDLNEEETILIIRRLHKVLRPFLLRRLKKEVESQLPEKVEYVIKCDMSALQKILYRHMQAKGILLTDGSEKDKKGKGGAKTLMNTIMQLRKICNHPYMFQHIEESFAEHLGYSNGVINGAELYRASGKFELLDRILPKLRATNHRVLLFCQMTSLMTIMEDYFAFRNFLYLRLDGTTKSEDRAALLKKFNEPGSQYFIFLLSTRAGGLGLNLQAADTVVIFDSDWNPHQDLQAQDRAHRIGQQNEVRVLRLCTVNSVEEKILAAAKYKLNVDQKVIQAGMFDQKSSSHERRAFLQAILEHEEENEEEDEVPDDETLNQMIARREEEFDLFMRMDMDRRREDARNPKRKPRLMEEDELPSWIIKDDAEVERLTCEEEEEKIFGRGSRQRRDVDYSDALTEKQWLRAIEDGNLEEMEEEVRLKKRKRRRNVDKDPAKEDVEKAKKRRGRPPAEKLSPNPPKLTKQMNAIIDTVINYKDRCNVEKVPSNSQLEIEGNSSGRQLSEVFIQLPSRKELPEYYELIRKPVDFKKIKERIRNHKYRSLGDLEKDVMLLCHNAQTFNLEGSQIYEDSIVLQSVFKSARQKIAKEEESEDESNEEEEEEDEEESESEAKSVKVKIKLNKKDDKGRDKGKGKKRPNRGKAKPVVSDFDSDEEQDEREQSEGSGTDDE
T2 sequence (P51532 whole entry): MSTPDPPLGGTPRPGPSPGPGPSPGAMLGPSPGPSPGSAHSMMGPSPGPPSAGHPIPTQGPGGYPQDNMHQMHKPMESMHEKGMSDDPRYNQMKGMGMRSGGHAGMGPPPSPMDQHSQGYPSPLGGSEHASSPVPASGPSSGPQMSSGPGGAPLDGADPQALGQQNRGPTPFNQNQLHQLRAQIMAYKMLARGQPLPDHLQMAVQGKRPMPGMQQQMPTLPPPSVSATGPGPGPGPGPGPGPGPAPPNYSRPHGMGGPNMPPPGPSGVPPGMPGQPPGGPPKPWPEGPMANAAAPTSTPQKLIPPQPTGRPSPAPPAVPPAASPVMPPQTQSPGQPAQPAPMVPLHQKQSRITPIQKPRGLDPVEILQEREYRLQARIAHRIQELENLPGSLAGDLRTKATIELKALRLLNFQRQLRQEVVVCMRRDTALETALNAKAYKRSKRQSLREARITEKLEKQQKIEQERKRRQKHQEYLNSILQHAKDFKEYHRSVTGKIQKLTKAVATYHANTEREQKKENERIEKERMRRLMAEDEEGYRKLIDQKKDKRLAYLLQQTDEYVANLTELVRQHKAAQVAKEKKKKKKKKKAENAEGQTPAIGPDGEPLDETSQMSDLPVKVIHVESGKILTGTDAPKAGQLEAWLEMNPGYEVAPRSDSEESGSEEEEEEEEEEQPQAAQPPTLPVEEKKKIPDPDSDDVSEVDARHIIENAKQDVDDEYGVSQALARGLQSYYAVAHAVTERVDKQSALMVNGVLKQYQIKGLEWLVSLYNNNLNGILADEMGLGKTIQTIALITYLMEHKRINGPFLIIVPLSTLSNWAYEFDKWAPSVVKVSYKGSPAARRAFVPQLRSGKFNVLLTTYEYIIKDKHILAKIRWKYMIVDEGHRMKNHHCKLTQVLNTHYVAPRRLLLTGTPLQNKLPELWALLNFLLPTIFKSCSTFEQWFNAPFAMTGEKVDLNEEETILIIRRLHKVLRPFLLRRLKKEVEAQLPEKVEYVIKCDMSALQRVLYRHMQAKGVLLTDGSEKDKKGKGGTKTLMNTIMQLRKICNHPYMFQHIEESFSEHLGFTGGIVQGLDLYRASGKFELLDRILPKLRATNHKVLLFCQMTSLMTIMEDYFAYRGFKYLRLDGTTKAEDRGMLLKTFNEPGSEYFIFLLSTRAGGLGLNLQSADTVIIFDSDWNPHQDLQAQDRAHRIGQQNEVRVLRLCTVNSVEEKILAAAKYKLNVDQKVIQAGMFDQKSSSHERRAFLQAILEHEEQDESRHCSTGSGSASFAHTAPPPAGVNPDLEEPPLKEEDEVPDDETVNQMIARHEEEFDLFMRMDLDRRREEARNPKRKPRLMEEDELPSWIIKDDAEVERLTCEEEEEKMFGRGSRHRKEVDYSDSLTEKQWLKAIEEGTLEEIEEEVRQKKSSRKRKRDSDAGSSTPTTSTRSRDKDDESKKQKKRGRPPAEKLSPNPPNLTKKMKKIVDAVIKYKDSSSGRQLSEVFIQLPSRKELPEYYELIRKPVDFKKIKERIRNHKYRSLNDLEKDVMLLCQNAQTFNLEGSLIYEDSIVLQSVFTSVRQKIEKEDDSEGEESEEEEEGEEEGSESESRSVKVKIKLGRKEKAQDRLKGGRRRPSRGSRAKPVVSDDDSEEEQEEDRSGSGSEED

Broadly, the DC50 is the midpoint of the concentration-degradation curve. In the case of `Cc1ncsc1-c1ccc(CNC(=O)[C@@H]2C[C@@H](O)CN2C(=O)[C@@H](NC(=O)[C@H]2CC3(C2)C[C@H](N2CCC(n4cc(-c5cc(-c6ccccc6O)nnc5N)cn4)CC2)C3)C(C)(C)C)cc1` (some centres unmarked) [I-390], in test [1], the “SMARCA2 WB MV411 degradation 24 h: Average Dmax %” value was “B (B (>70-90% degradation))” and the DC50 was under 100 nM. Further, in test [2], the “SMARCA2 MSD A549 degradation 24 h: Average Dmax %” value is given as “B (B (>70-90% degradation))” and the DC50 was in the range of 100 to 500 nM. In test [3], the “SMARCA4 WB MV411 degradation 24 h: Average Dmax %” value is recorded as “D (D (<50% degradation))” and the 50% degradation concentration (DC50) is under 100 nM. For the same compound, the “SMARCA2 MSD H1299 degradation 24 h: Dmax %” value in test [4] is given as “C (C (50-70 degradation))”. In addition, the DC50 in test [4] (read-out: SMARCA2 MSD H1299 degradation 24 h: External Abs-DC50) was in the range of 501 to 1000 nM.

Broadly, the Dmax is the largest share of the target that was removed. Take `Cc1ncsc1-c1ccc(CNC(=O)[C@@H]2C[C@@H](O)CN2C(=O)[C@@H](NC(=O)C23CCC(CN4CCC(n5cc(-c6cc(-c7ccccc7O)nnc6N)cn5)CC4)(CC2)CC3)C(C)(C)C)cc1` [I-428]: the values for the maximal degradation (Dmax) in test [1], in test [2] and in test [3] were over 90%, over 90% and 70 to 90%, respectively. The 50% degradation concentration (DC50) was under 100 nM in test [1], 100 to 500 nM in test [2] and 100 to 500 nM in test [3].

With `CC(=O)Nc1cc(-c2scnc2C)ccc1CNC(=O)[C@@H]1C[C@@H](O)CN1C(=O)[C@@H](NC(=O)[C@H]1CC[C@H](c2cnc(N3C4CCC3CN(c3cc(-c5ccccc5O)nnc3N)C4)nc2)CC1)C(C)(C)C` [I-430, (2S,4R)—N-(2-acetamido-4-(4-methylthiazol-5-yl)benzyl)-1-((2S)-2-((1r,4S)-4-(2-(3-(3-amino-6-(2-hydroxyphenyl)pyridazin-4-yl)-3,8-diazabicyclo [3.2.1]octan-8-yl)pyrimidin-5-yl)cyclohexanecarboxamido)-3,3-dimethylbutanoyl)-4-hydroxypyrrolidine-2-carboxamide], the Dmax in test [1], in test [2] and in test [3] was over 90% each time. Moreover, the 50% degradation concentration (DC50) in test [1], in test [2] and in test [3] was under 100 nM each time.

`Cc1ncsc1-c1ccc(CNC(=O)[C@@H]2C[C@@H](O)CN2C(=O)[C@@H](NC(=O)[C@H]2CC[C@H](c3cnc(N4C5CCC4CN(c4cc(-c6ccccc6O)nnc4N)C5)nc3)CC2)C(C)(C)C)c(C(=O)N(C)C)c1` [I-431]: the Dmax in test [1], in test [2] and in test [3] was over 90% each time. For the same compound, the half-maximal degradation concentration (DC50) in test [1], in test [2] and in test [3] was under 100 nM throughout.

Take `Cc1ncsc1-c1ccc(CNC(=O)[C@@H]2C[C@@H](O)CN2C(=O)[C@@H](NC(=O)[C@H]2CC3(C2)C[C@H](c2ccc(CN4CCC(Cn5cc(-c6cc(-c7ccccc7O)nnc6N)cn5)CC4)cc2)C3)C(C)(C)C)cc1` (some centres unmarked) [I-433]: in test [1], the maximal degradation (Dmax) is over 90% and the DC50 is under 100 nM. Moreover, in test [2], the Dmax is over 90% and the DC50 is under 100 nM. In test [3], the “SMARCA4 WB MV411 degradation 24 h: Average Dmax %” value was “C (C (50-70% degradation))” and the DC50 was under 100 nM.

For `Cc1ncsc1-c1ccc(CNC(=O)[C@@H]2C[C@@H](O)CN2C(=O)[C@@H](NC(=O)[C@H]2C[C@@]3(C2)C[C@H](c2ccc(CN4CCC(Cn5cc(-c6cc(-c7ccccc7O)nnc6N)cn5)CC4)cc2)C3)C(C)(C)C)cc1` (some centres unmarked) [I-434], in test [1], the “SMARCA2 WB MV411 degradation 24 h: Average Dmax %” value is reported as “A (A (>90% degradation))” and the half-maximal degradation concentration (DC50) is under 100 nM. Also, in test [2], the “SMARCA2 MSD A549 degradation 24 h: Average Dmax %” value is “A (A (>90% degradation))” and the DC50 is under 100 nM. In addition, in test [3], the “SMARCA4 WB MV411 degradation 24 h: Average Dmax %” value is given as “A (A (>90% degradation))” and the DC50 was under 100 nM.

As to `Cc1ncsc1-c1ccc(CNC(=O)[C@@H]2C[C@@H](O)CN2C(=O)[C@@H](NC(=O)[C@H]2CC[C@H](Cc3ccc(-c4cnc(N5C6CCC5CN(c5cc(-c7ccccc7O)nnc5N)C6)nc4)cc3)CC2)C(C)(C)C)cc1` [I-437], the greatest degradation seen (Dmax) in test [1], in test [2] and in test [3] was over 90% throughout. Besides, the half-maximal degradation concentration (DC50) in test [1] was under 100 nM; in test [2], under 100 nM; in test [3], 100 to 500 nM.

As to `Cc1ncsc1-c1ccc([C@H](C)NC(=O)[C@@H]2C[C@@H](O)CN2C(=O)[C@@H](NC(=O)[C@H]2CC[C@H](c3cnc(N4C5CCC4CN(c4cc(-c6ccccc6O)nnc4N)C5)nc3)CC2)C(C)(C)C)cc1` [I-438], the Dmax in test [1], in test [2] and in test [3] was over 90% in each case. Moreover, the DC50 in test [1], in test [2] and in test [3] was under 100 nM in each case.

With `Cc1ncsc1-c1ccc(C2(NC(=O)[C@@H]3C[C@@H](O)CN3C(=O)[C@@H](NC(=O)[C@H]3CC[C@H](c4cnc(N5C6CCC5CN(c5cc(-c7ccccc7O)nnc5N)C6)nc4)CC3)C(C)(C)C)CC2)cc1` [I-439], the Dmax in test [1], in test [2] and in test [3] was over 90% throughout. The DC50 in test [1], in test [2] and in test [3] was under 100 nM each time.

`Cc1ncsc1-c1ccc(CNC(=O)[C@@H]2C[C@@H](O)CN2C(=O)[C@@H](NC(=O)C2CCC(c3cnc(N4C5CCC4CN(c4cc(-c6ccccc6O)nnc4N)C5)nc3)CC2C)C(C)(C)C)cc1` (some centres unmarked) [I-444]: the half-maximal degradation concentration (DC50) in test [1] is under 100 nM; in test [2], 501 to 1000 nM; in test [3], under 100 nM.

For `Cc1ncsc1-c1ccc(CNC(=O)[C@@H]2C[C@@H](O)CN2C(=O)[C@@H](NC(=O)C2CC(N3CCC(n4cc(-c5cc(-c6ccccc6O)nnc5N)cn4)CC3)C2)C(C)(C)C)cc1` (some centres unmarked) [I-484], the greatest degradation seen (Dmax) is over 90% in test [1], 70 to 90% in test [2] and 70 to 90% in test [3]. For the same compound, the half-maximal degradation concentration (DC50) in test [1] was under 100 nM; in test [2] it was 100 to 500 nM; in test [3] it was 100 to 500 nM.

On to `Cc1ncsc1-c1ccc(CNC(=O)[C@@H]2C[C@@H](O)CN2C(=O)[C@@H](NC(=O)[C@H]2CC[C@H](CN(C)Cc3cnc(N4C5CCC4CN(c4cc(-c6ccccc6O)nnc4N)C5)nc3)CC2)C(C)(C)C)cc1` [I-486], for which the Dmax was over 90% in test [1], over 90% in test [2] and 50 to 70% in test [3]. In addition, the DC50 in test [1] is under 100 nM; in test [2], 100 to 500 nM; in test [3], 100 to 500 nM.

Consider `Cc1ncsc1-c1ccc(CNC(=O)[C@@H]2C[C@@H](O)CN2C(=O)[C@@H](NC(=O)C2CCC(c3cnc(N4C5CCC4CN(c4cc(-c6ccccc6O)nnc4N)C5)nc3)CC2)C(C)(C)C)cc1` (some centres unmarked) [I-503], for which the greatest degradation seen (Dmax) in test [1], in test [2] and in test [3] was over 90% in each case. Besides, the DC50 in test [1], in test [2] and in test [3] was under 100 nM each time.

In the case of `Cc1ncsc1-c1ccc(CNC(=O)[C@@H]2C[C@@H](O)CN2C(=O)[C@@H](NC(=O)CN2C3CCC2CC(c2cnc(N4C5CCC4CN(c4cc(-c6ccccc6O)nnc4N)C5)nc2)C3)C(C)(C)C)cc1` (some centres unmarked) [I-509], the figures for the Dmax in test [1], in test [2] and in test [3] were 70 to 90%, over 90% and 70 to 90%, respectively. Moreover, the DC50 in test [1] is under 100 nM; in test [2], 100 to 500 nM; in test [3], over 1000 nM.

Take `Cc1ncsc1-c1ccc(CNC(=O)[C@@H]2C[C@@H](O)CN2C(=O)[C@@H](NC(=O)c2ccc(N3CC(n4cc(-c5cc(-c6ccccc6O)nnc5N)cn4)C3)cc2)C(C)(C)C)cc1` [I-514]: the greatest degradation seen (Dmax) in test [1], in test [2] and in test [3] was over 90% throughout. Besides, the DC50 in test [1] is under 100 nM; in test [2] it was 100 to 500 nM; in test [3], under 100 nM.

As to `Cc1ncsc1-c1ccc(CNC(=O)[C@@H]2C[C@@H](O)CN2C(=O)[C@@H](NC(=O)CN2CCC(c3cnc(N4C5CCC4CN(c4cc(-c6ccccc6O)nnc4N)C5)nc3)CC2)C(C)(C)C)c(C(F)(F)F)c1` [I-522], the Dmax in test [1] is over 90%; in test [2] it was 70 to 90%; in test [3], 70 to 90%. In addition, the DC50 is under 100 nM in test [1], 100 to 500 nM in test [2] and over 1000 nM in test [3].
